The results in this text go back to ChEMBL document CHEMBL1157957, “9,11-Secosterols from the soft corals Sinularia lochmodes and Sinularia leptoclados” (J Nat Prod, 2006).

Format in all cases: functional, cell-based
Assay [1] deals with MCF7. Put plainly: Cytotoxicity against human MCF7 cells by MTT assay.
In assay [2] the test system is A549. Put plainly: Cytotoxicity against human A549 cells by MTT assay. For orientation: Tetrazolium assays rely on reduction of a dye to a coloured formazan, in cell work by metabolically active cells.
Assay [3] relates to HepG2. Put plainly: Cytotoxicity against human HepG2 cells by MTT assay.
Assay [4] relates to MDA-MB-231. Put plainly: Cytotoxicity against human MDA-MB-231 cells by MTT assay.

Molecules are shown by their SMILES. In brackets after ≈: the same amount, converted by molar mass.

As for `C=C(CC[C@@H](C)[C@H]1CC[C@@H]([C@@H]2CC[C@H]3C[C@@H](O)CC[C@]3(C)C2=O)[C@]1(C)CCO)C(C)C`, the IC50 was found to be 9.2 µg/mL (≈ 21.3 µM) in assay [1], 9.8 µg/mL (≈ 22.6 µM) in assay [2], 8.2 µg/mL (≈ 19 µM) in assay [3] and 11.3 µg/mL (≈ 26.1 µM) in assay [4].
For the compound `C=C(CC[C@@H](C)[C@H]1CC[C@@H]([C@@H]2CC=C3C[C@@H](O)CC[C@]3(C)C2=O)[C@]1(C)CCO)C(C)C`, the IC50 in assay [1] is 4.5 µg/mL (≈ 10.4 µM); in assay [2] it was 9.1 µg/mL (≈ 21.1 µM); in assay [3], 9.1 µg/mL (≈ 21.1 µM); in assay [4], 9.9 µg/mL (≈ 23 µM).
On to `CC(C)C(C)CC[C@@H](C)[C@H]1CC[C@@H]([C@@H]2CC=C3C[C@@H](O)CC[C@]3(C)C2=O)[C@]1(C)CCO` (stereo not given in full), for which the concentration for half-maximal inhibition (IC50) in assay [1] was 15.7 µg/mL (≈ 36.3 µM); in assay [2], 16.8 µg/mL (≈ 38.8 µM); in assay [3], 14.1 µg/mL (≈ 32.6 µM); in assay [4], 15 µg/mL (≈ 34.7 µM).
As for `COc1cccc2c1C(=O)c1c(O)c3c(c(O)c1C2=O)C[C@@](O)(C(=O)CO)C[C@@H]3O[C@H]1C[C@H](N)[C@H](O)[C@H](C)O1` [DOXORUBICIN], the results for the concentration for half-maximal inhibition (IC50) in assay [1], in assay [2] and in assay [3] were 0.4 µg/mL (≈ 0.736 µM), 0.4 µg/mL (≈ 0.736 µM) and 0.3 µg/mL (≈ 0.552 µM), respectively.

As a reminder, the IC50 is the concentration at which inhibition is half-maximal.
